Experimental data taken from BindingDB's records for doi:10.1016/j.bioorg.2015.10.003 (University of Technology Sydney, 2015).
pIC50, pKi: −log10 of the molar value.

These compounds were tested against Polyphenol oxidase 1 [N65D,S176D,K211T,P277A,P406L] (Agaricus bisporus var. bisporus (strain H97 / ATCC MYA-4626 / FGSC 10389), UniProt Q00024, K211T/N65D/P277A/P406L/S176D) (assay: Enzymatic Activity Assay). Conditions: pH 6.8.
Description: The mushroom tyrosinase inhibition activity of hydroxy naphthylchalcone compounds was measured using L-DOPA as substrate. The activity assay used 3 ml of reaction medium containing 0.5 mM L-DOPA in 50 mM Na2HPO4-NaH2PO4 buffer (pH 6.8). […] The substrate reaction progress curve was analyzed to obtain the reaction rate constants. The reaction was carried out at 30 °C and pH 6.8.
With O=C(/C=C/c1ccc([N+](=O)[O-])cc1O)c1cc2ccccc2cc1O [(2E)-1-(3-hydroxynaphthalen-2-yl)-3-(2-hydroxy-4-nitrophenyl) prop-2-en-1-one (3b)] the pIC50 was 4.64 and the pKi was 4.95. O=C(/C=C/c1ccc(O)c([N+](=O)[O-])c1)c1cc2ccccc2cc1O [(2E)-1-(3-hydroxynaphthalen-2-yl)-3-(4-hydroxy-3-nitrophenyl) prop-2-en-1-one (4b)] was tested, and the pIC50 was 4.59 and the pKi was 4.92. In the case of O=C(/C=C/c1ccc(O)cc1O)c1cc2ccccc2cc1O [(2E)-3-(2,4-dihydroxyphenyl)-1-(3-hydroxynaphthalen-2-yl) prop-2-en-1-one (2b)], the pIC50 was 4.84 and the pKi was 5.35. For O=C(/C=C/c1cc(O)ccc1O)c1cc2ccccc2cc1O [(2E)-3-(2,5-dihydroxyphenyl)-1-(3-hydroxynaphthalen-2-yl) prop-2-en-1-one (1b)], the pIC50 was 4.69 and the pKi was 4.97. O=C(/C=C/c1cc(O)cc(O)c1)c1cc2ccccc2cc1O [(2E)-3-(3,5-dihydroxyphenyl)-1-(3-hydroxynaphthalen-2-yl)prop-2-en-1-one (5b)] was tested, and the pIC50 was 4.98 and the pKi was 5.42.
